From patent US20180160709A1, “bitter taste removing preparation and method” (priority 2016, published 2018)

Test: In vitro membrane dialysis: bonding between bitter ingredients and proteins
Format: binding
Conditions: among whey protein, milk powder, chicken ovalbumin, bovine serum albumin
Procedure: The possible hydrophobic bonding between bitter ingredients RO and protein molecules can be explored by using membrane dialysis:
Dialysis bag was purchased from Beijing Scientan science and technology company, molecular weight range 8-14 KD. The bag was immersed in 10 mL water in a beaker. The pore size on the membrane inhibited the protein molecules from penetrating.
Into the first group (control samples) bags added in the sophora flavescens, gentian, and scutellaria decoctions and Berberine in aqueous solution respectively, 0.2 mL each, and diluted with water to 2 mL total volume each. To simulate the Chinese medicine, in the 4 medicine decoctions used as sample and control sample, there was no additive and without any post processing.
In the second group of 4×5 bags, four different protein powders were added respectively: whey protein, milk powder, chicken ovalbumin, bovine serum albumin, 5 bags for each protein, 400 mg powder in each bag. As the last step of sample preparation, 2 mL of 1/10 diluted decoction solutions were added into the protein bags, 4 different protein bags for each medicine decoction to add in. Into the remaining set of 4 different protein bags from above, 2 ml water was added instead without any medicine decoction. […]
Scheduled sampling from the 10 mL water outside the bag, and followed by HPLC quantitative analysis. […]

bovine serum albumin: protein powder, 400 mg per dialysis bag
encapsulation or hydrophobic bonding ability: strongest
